Test results from patent US7084127B2, “C2,5′-disubstituted and N6, C2,5′-trisubstituted adenosine derivatives and their different uses” (Universiteit Leiden, priority 2001, dated 2006).

Assays:
[1] = molecular target: T1, A2A receptor in rat striatum (Rattus norvegicus, UniProt P30543); assay: Radioligand binding, displacement of [3H]ZM241385 from rat striatal membranes; conditions: [3H]ZM241385, rat striatal membranes;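 also: displacement assays run in the absence of GTP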
T1 construct: the A2A receptor in rat striatum; from tissue; host or cells: rat striatum
Protocol: Incubations were carried out for 1 hr at 37° C. and were terminated by rapid filtration over Whatman GF/B filters, using a Brandell cell harvester (Brandell, Gaithersburg, Md.). Tubes were washed three times with 3 ml of buffer. Radioactivity was determined in a Beckman 5500B γ-counter. Nonspecific binding was determined in the presence of 10^−5 M R-PIA.
All compounds were tested in radioligand binding assays to determine their affinities for the adenosine A1 receptor in rat brain cortex, the A2A receptor in rat striatum and the human A3 receptor as expressed in HEK 293 cells (Table 2). […] AB-MECA, an A3 receptor agonist, was also used. Displacement experiments were performed in the absence of GTP.

[2] = molecular target: T2, human adenosine A1 receptors expressed in CHO cells (Homo sapiens, UniProt P30542); assay: cAMP assay A1 (inhibition of forskolin-induced cAMP production); format: cell-based; conditions: compared to reference full agonist CPA (10 μM) in A1 CHO cells; tested at ±100 × Ki; ±SEM, n = 3; forskolin 10 μM
T2 construct: expressed in transfected cells; host or cells: CHO cells
T2 sequence (P30542 1-326): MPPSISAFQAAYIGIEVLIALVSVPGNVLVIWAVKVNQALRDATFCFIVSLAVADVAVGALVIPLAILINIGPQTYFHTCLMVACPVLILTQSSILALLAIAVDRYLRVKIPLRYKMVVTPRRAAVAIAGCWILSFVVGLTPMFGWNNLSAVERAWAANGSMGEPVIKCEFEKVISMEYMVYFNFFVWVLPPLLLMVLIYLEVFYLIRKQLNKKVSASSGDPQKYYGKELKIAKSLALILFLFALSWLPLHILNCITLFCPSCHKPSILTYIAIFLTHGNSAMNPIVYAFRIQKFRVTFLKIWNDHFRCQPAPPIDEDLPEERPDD
Protocol: cAMP assay A1 and A3 CHO cells expressing either the human adenosine A1 or A3 receptor were grown overnight as a monolayer in 24 wells tissue culture plates (400 μl/well; 2×10^5cells/well). cAMP generation was performed in Dulbecco's Modified Eagles Medium (DMEM)/N-2-hydroxyethylpiperazin-N′-2-ethansulfonic acid (HEPES) buffer (0.60 g HEPES/50 ml DMEM pH 7.4). […] After incubation for 40 minutes at 37° C., 100 μl forskolin (final concentration 10 μM) was added. After 15 minutes at 37° C., the reaction was terminated by removing the medium and adding 200 μL 0.1 M HCl. Wells were stored at −20° C. until assay
The amounts of cAMP were determined after a protocol with cAMP binding protein^28 with the following minor modifications. As a buffer was used 150 mM K2HPO4/10 mM EDTA/0.2% Bovine Serum Albumine (BSA) at pH 7.5. Samples (20 μl+30 μl 0.1 M HCl) were incubated for at least 2.5 hours at 0° C. before filtration over Whatman GF/B filters. Filters were additionally rinsed with 2×2 ml TrisHCl buffer (pH 7.4, 4° C.). Filters were counted in Packard Emulsifier Safe scintillation fluid (3.5 ml) after 24 hours of extraction. […]

T1 sequence (P30543 whole entry): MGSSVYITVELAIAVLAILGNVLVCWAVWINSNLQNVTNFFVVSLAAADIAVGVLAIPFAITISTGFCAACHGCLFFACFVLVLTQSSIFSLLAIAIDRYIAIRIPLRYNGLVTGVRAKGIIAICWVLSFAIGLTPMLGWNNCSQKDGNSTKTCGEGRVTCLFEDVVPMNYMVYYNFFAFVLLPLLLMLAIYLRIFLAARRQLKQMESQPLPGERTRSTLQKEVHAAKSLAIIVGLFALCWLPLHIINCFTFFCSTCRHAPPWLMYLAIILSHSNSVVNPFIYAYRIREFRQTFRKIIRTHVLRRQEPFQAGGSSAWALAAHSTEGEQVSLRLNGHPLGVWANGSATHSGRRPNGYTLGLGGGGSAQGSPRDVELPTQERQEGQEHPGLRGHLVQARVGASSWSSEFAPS

| Ki [1] [nM] | % inhib. A1 of forskolin-induced cAMP [2] [%] | melting point [°C] | SMILES |
| --- | --- | --- | --- |
| 261 ± 65 | 75 ± 3 | 112 to 114 | COC[C@H]1O[C@@H](n2cnc3c(N)ncnc32)[C@H](O)[C@@H]1O [Compound 66, 5′-O-methyladenosine] |
| 284 ± 55 | 78 ± 4 | 200 to 202 | COC[C@H]1O[C@@H](n2cnc3c(N)nc(Cl)nc32)[C@H](O)[C@@H]1O [Compound 69, 2-Chloro-5′-O-methyladenosine] |
| 415 ± 69 | 57 ± 11 | 110 to 112 | CCOC[C@H]1O[C@@H](n2cnc3c(N)ncnc32)[C@H](O)[C@@H]1O [Compound 72, 5′-O-Ethyladenosine] |
| 659 ± 168 | 67 ± 7 | 117 to 119 | CCOC[C@H]1O[C@@H](n2cnc3c(N)nc(Cl)nc32)[C@H](O)[C@@H]1O [Compound 75, 2-Chloro-5′-O-ethyladenosine] |
| 885 ± 89 | 49 ± 9 | 122 to 124 | Nc1nc(Cl)nc2c1ncn2[C@@H]1O[C@H](COC2CC2)[C@@H](O)[C@H]1O [Compound 81, 2-Chloro-5′-O-cyclopropyladenosine] |
